Tests used:
human CYP11B2 = biological target: T1, human CYP11B2 (Homo sapiens, UniProt P19099); assay: G-402 cellular enzyme assay, human CYP11B2 (aldosterone release, HTRF); format: cell-based; conditions: G-402 cells expressing human CYP11B2; 1 μM Deoxycorticosterone
T1 construct: expressed in transfected cells
T1 sequence (P19099 25-503): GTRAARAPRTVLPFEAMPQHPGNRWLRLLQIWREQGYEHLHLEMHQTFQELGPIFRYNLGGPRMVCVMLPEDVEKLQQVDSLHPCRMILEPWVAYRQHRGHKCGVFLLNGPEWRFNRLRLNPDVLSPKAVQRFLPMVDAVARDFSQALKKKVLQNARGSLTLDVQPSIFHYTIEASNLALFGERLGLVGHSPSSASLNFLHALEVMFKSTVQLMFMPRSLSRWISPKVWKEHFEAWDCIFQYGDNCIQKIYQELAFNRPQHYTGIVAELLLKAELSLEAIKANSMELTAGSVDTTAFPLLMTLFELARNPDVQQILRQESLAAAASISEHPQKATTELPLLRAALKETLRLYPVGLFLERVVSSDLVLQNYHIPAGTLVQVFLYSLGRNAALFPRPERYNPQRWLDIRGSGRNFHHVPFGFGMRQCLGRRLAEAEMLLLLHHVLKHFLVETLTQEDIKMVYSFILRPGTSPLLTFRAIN
Excerpt: (§1) Herein we identified the use of the G-402 cell line as a host cell to ectopically express (transiently or stably) enzymes of the CYP11 family. Specifically we developed stable G-402 cells expressing ectopically human CYP11B1, human CYP11B2, human CYP11A1, cynmolgus CYP11B1 or cynomolgus CYP11B2 enzyme activity. Importantly the identified cell line G-402 expresses co-factors (adrenodoxin and adrenodoxin reductase) important for the activity of the CYP11 family and no relevant enzyme activity of the CYP11 family (in comparison to H295R cells) was detected in these cells. Therefore the G-402 cell line is uniquely suited as a host cell for the ectopic expression of enzymes from the CYP11 family.
(§2) The expression plasmids contains the ORF for either human/cyno CYP11B1 or CYP11B2 under the control of a suitable promoter (CMV-promoter) and a suitable resistance marker (neomycin). Using standard techniques the expression plasmid is transfected into G-402 cells and these cells are then selected for expressing the given resistance markers. Individual cell-clones are then selected and assessed for displaying the desired enzymatic activity using 11-Deoxycorticosterone (Cyp11B2) or 11-Deoxycortisol (Cyp11B1) as a substrate.
(§3) G-402 cells expressing CYP11 constructs were established as described above and maintained in McCoy's 5a Medium Modified, ATCC Catalog No. 30-2007 containing 10% FCS and 400 μg/ml G418 (Geneticin) at 37° C. under an atmosphere of 5% CO2/95% air.
(§4) Cellular enzyme assays were performed in DMEM/F12 medium containing 2.5% charcoal treated FCS and appropriate concentration of substrate (0.3-10 uM 11-Deoxycorticosterone, 11-Deoxycortisol or Corticosterone). For assaying enzymatic activity, cells were plated onto 96 well plates and incubated for 16 h. An aliquot of the supernatant is then transferred and analyzed for the concentration of the expected product (Aldosterone for CYP11B2; Cortisol for CYP11B1). The concentrations of these steroids can be determined using HTRF assays from CisBio analyzing either Aldosterone or Cortisol.
(§5) Inhibition of the release of produced steroids can be used as a measure of the respective enzyme inhibition by test compounds added during the cellular enzyme assay. The dose dependent inhibition of enzymatic activity by a compound is calculated by means of plotting added inhibitor concentrations (x-axes) vs. measured steroid/product level (y-axes). The inhibition is then calculated by fitting the following 4-parameter sigmoidal function (Morgan-Mercer-Flodin (MMF) model) to the raw data points using the least squares method:
(§6) [formula] wherein, A is the maximum y value, B is the EC50 factor determined using XLFit, C is the minimum y value and D is the slope value.
(§7) EC50 values for compounds claimed herein were tested with the G402-based assay system described. Cyp11B2 enzyme activity was tested in presence of 1 μM Deoxycorticosterone and variable amounts of inhibitors; Cyp11B1 enzyme activity was tested in presence of 1 μM Deoxycortisol and variable amounts of inhibitors.

human CYP11B1 = biological target: T2, human CYP11B1 (Homo sapiens, UniProt P15538); assay: G-402 cellular enzyme assay, human CYP11B1 (cortisol release, HTRF); format: cell-based; conditions: G-402 cells expressing human CYP11B1; 1 μM Deoxycortisol
T2 construct: expressed in transfected cells
T2 sequence (P15538 25-503): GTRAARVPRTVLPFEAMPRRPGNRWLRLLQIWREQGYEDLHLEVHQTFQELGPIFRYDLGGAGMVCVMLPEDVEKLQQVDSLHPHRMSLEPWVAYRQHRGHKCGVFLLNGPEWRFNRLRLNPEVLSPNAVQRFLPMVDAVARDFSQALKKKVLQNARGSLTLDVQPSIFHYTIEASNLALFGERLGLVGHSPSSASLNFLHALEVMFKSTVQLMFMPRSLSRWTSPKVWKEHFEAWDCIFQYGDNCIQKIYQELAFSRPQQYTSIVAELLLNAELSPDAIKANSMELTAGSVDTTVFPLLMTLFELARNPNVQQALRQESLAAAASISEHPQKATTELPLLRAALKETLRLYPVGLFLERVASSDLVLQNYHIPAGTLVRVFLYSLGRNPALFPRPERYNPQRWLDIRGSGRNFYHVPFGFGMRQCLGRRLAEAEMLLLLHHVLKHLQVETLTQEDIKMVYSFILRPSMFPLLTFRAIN
Excerpt: as §1, §2, §3, §4, §5, §6, §7

[1] = test system: rats with experimental heart failure; conditions: rat, in vivo; cited from earlier work
[2] = test system: rat model of chronic kidney disease; conditions: cited from earlier work; for cardiac and aortic medial hypertrophy / renal effects of angiotensin II and high salt (albuminuria, azotemia, renovascular hypertrophy, glomerular injury, PAI-1 and osteopontin mRNA, tubulointerstitial fibrosis): rat, in vivo
[3] = test system: patients with primary aldosteronism; conditions: oral; cited from earlier work

Cc1c(Cn2c(C)cccc2=O)cncc1-c1cc2c(cc1F)N(C)C(=O)CC2 [Example 24, 7-Fluoro-1-methyl-6-[4-methyl-5-(6-methyl-2-oxo-2H-pyridin-1-ylmethyl)-pyridin-3-yl]-3,4-dihydro-1H-quinolin-2-one]
EC50 (human CYP11B2): 16.5 nM | EC50 (human CYP11B1): 2140 nM

Cc1c(Cn2c(Cl)cccc2=O)cncc1-c1cc2c(cc1F)N(C)C(=O)CC2 [Example 25, 6-[5-(6-Chloro-2-oxo-2H-pyridin-1-ylmethyl)-4-methyl-pyridin-3-yl]-7-fluoro-1-methyl-3,4-dihydro-1H-quinolin-2-one]
EC50 (human CYP11B2): 2.1 nM | EC50 (human CYP11B1): 234 nM

Cc1c(Cn2cccc(F)c2=O)cncc1-c1cc2c(cc1F)N(C)C(=O)CC2 [Example 26, 7-Fluoro-6-[5-(3-fluoro-2-oxo-2H-pyridin-1-ylmethyl)-4-methyl-pyridin-3-yl]-1-methyl-3,4-dihydro-1H-quinolin-2-one]
EC50 (human CYP11B2): 1 nM | EC50 (human CYP11B1): 44.8 nM

Cc1c(Cn2c(F)cccc2=O)cncc1-c1cc2c(cc1F)N(C)C(=O)CC2 [Example 27, 7-Fluoro-6-[5-(6-fluoro-2-oxo-2H-pyridin-1-ylmethyl)-4-methyl-pyridin-3-yl]-1-methyl-3,4-dihydro-1H-quinolin-2-one]
EC50 (human CYP11B2): 1 nM | EC50 (human CYP11B1): 91.3 nM

N#Cc1ccc([C@H]2CCCc3cncn32)cc1 [FAD286]
blood pressure and cardiovascular function and structure [1]: improved | kidney function and morphology [1]: improve | plasma aldosterone ([2]; following 4 weeks of treatment): reduced | cardiac and aortic medial hypertrophy [2]: attenuated | renal effects of angiotensin II and high salt (albuminuria, azotemia, renovascular hypertrophy, glomerular injury, PAI-1 and osteopontin mRNA, tubulointerstitial fibrosis) [2]: prevented

N#Cc1ccc([C@H]2CCc3cncn32)c(F)c1 [LCI699]
blood pressure [3]: mildly decreased | circulating aldosterone levels [3]: significantly lower | hypokalemia [3]: corrected | selectivity (effects on the glucocorticoid axis) [3]: poor selectivity

CC(=O)S[C@@H]1CC2=CC(=O)CC[C@]2(C)[C@H]2CC[C@@]3(C)[C@@H](CC[C@@]34CCC(=O)O4)[C@H]12 [spironolactone]
aldosterone ([2]; at 4 and 8 weeks of treatment): increased | angiotensin II and salt-stimulated PAI-1 mRNA expression ([2]; in the aorta and the heart): enhanced | cardiac and aortic medial hypertrophy [2]: attenuated | renal effects of angiotensin II and high salt (albuminuria, azotemia, renovascular hypertrophy, glomerular injury, PAI-1 and osteopontin mRNA, tubulointerstitial fibrosis) [2]: prevented
